Reference: patent US4120896A, “S-Phenenyltris(sulfonylimino)tri-anionic substituted benzene dicarboxylic acids and substituted alkyl amino acids and their salts” (America Cyanamid Company, priority 1977, dated 1978)
Where “and” joins values, the source holds several entries; their conditions need not be identical. Identical values can stand only once. Counter-ions that a name gives are not always drawn. Like-named read-outs stand apart in the source and are kept apart here.

Key:
complement system = settings: literature report; cited from earlier work
citrated sheep plasma = assay: In vitro anti-coagulant activity (AC): clotting of recalcified citrated sheep plasma with sheep RBC; assay type: biochemical; settings: for AC Wells: Table I, two-fold serial dilution, higher well number indicates higher activity, sodium heparin positive control; for Anti-coagulant Activity (Wells) AC: Table II, in vitro
Description: The sheep RBC's, kept in suspension throughout the clotting incubation time, become enmeshed in the fibrin matrix if a clot forms. Upon centrifugation of the plate, untrapped RBC's form buttons, the sizes of which correspond to the degree of clot inhibition; this providing a measure of anti-coagulant activity (AC). Sodium heparin is used as a positive control and activity is reported in wells appearing in Table 1.
(§1) **Activity in wells a serial dilution assay. Higher well number indicates
(§2) higher activity. The serial dilutions are two -fold.

whole complement = assay: In vivo activity: whole complement level of serum of dosed guinea pigs, capillary tube assay; settings: guinea pig; for inhibition at 200 mg/kg: Cavia porcellus, iv, 200 mg/kg i.v.; for % Inhibition, Intraperitoneal, 30 min / % Inhibition, Intraperitoneal, 60 min / % Inhibition, Intraperitoneal, 120 min: 200 mg/kg i.p., 200 mg/kg
From the text: (§3) An active inhibitor protects C2 from C1 and C4; (ii) Test, Code 035 (C3-C9 inhibitor) - This test determines the ability of the late components of human complement (C3-C9) to lyse EAC 142 in the presence of appropriate dilutions of the test compound. An active inhibitor protects EAC 142 from lysis by human C3-C9; (iii) Test, Code 036 (C-Shunt inhibitor) - In this test human erythrocytes rendered fragile are lysed in autologous serum via the shunt pathway activated by cobra venom factor in the presence of appropriate dilutions of the test compound. Inhibition of the shunt pathway results in failure of lysis; (iv) Forssman Vasculitis Test - Here, the well known complement dependent lesion, Forssman vasculitis, is produced in guinea pigs by intradermal injection of rabbit anti-Forssman antiserum. The lesion is measured in terms of diameter, edema and hemorrhage and the extent to which a combined index of these is inhibited by prior intraperitoneal injection of the test compound at 200 mg/kg is then reported, unless otherwise stated; (v) Forssman Shock Test - Lethal shock is produced in guinea pigs by an i.v. injection of anti-Forssman antiserum and the harmonic mean death time of treated guinea pigs is compared with that of simultaneous controls; (vi) Complement Level Reduction Test -- In this test, the above dosed guinea pigs, or others, are bled for serum and the complement level is determined in undiluted serum by the capillary tube method of U.S. Pat. No. 3,876,376 and compared to undosed control guinea pigs; and (vii) Cap 50 Test -- Here, appropriate amounts of the test compound are added to a pool of guinea pig serum in vitro, after which the undiluted serum capillary tube assay referred to above is run. The concentration of compound inhibiting 50% is reported.
With reference to Table I, guinea pigs weighing about 300 g were dosed intravenously (i.v.) or intraperitoneally (i.p.) with 200 mg/kg of the test compound dissolved in saline and adjusted to pH 7-8. […] The serum was tested for whole complement using the capillary tube assay. Percent inhibition was calculated by comparison with simultaneous controls. The results appear in Table I together with results of tests, code 026, 035, 036, Cap 50, % inhibition and Forssman shock.

[1] = system: hereditary angioneurotic edema; settings: literature report, New England J. Med. 286, 808-812 (1972); cited from earlier work
activated human C1 = activated human C1 (Homo sapiens, UniProt P09871); assay: Code 026 (C1 inhibitor) test: ability of activated human C1 to destroy fluid phase human C2 in presence of C4; assay type: biochemical; settings: for C1 026 Wells: Table I, two-fold serial dilution, higher well number indicates higher activity; for Complement Inhibiting Activity (Wells) Code 026: Table II, in vitro
From the text: as §3, §1, §2

shunt pathway = assay: Code 036 (C-Shunt inhibitor) test: lysis of fragile human erythrocytes in autologous serum via shunt pathway activated by cobra venom factor; assay type: cell-based; settings: Table I; two-fold serial dilution, higher well number indicates higher activity
From the text: An active inhibitor protects C2 from C1 and C4; (ii) Test, Code 035 (C3-C9 inhibitor) - This test determines the ability of the late components of human complement (C3-C9) to lyse EAC 142 in the presence of appropriate dilutions of the test compound. An active inhibitor protects EAC 142 from lysis by human C3-C9; (iii) Test, Code 036 (C-Shunt inhibitor) - In this test human erythrocytes rendered fragile are lysed in autologous serum via the shunt pathway activated by cobra venom factor in the presence of appropriate dilutions of the test compound. Inhibition of the shunt pathway results in failure of lysis; (iv) Forssman Vasculitis Test - Here, the well known complement dependent lesion, Forssman vasculitis, is produced in guinea pigs by intradermal injection of rabbit anti-Forssman antiserum. […]

[2] = system: anti-complement and anti-coagulant activities; assay: Intrinsic Therapeutic Index: separation of anti-complement (Code 026) and anti-coagulant (AC) activities; settings: for Intrinsic Therapeutic Index: antilogarithm (base 2) of the difference in wells; for Logarithmic Difference Expressed As Wells: log base 2 difference, Code 026 minus AC
From the text: The computation of an Intrinsic Therapeutic Index (ITI) was devised to correlate the results expressed in wells, obtained in the in vitro Code 026 (C1 inhibitor) test and the in vitro anti-coagulant (AC) test into a meaningful value which would aid in the net evaluation of the activity of the compounds of this invention.
The ITI is thus a measure of the separation of anti-complement and anti-coagulant activities; the higher the numerical value the more therapeutically useful the separation of activities.

[3] = system: human serum total hemolytic complement; settings: in vitro and in vivo, Pathologie Biologie 25, 33-36 (1977); cited from earlier work

Compound: Nc1ccc2cc(S(=O)(=O)O)cc(O)c2c1N=Nc1ccc(NC(=O)Nc2ccc(N=Nc3c(N)ccc4cc(S(=O)(=O)O)cc(O)c34)c(S(=O)(=O)O)c2)cc1S(=O)(=O)O [chlorazol fast pink, 3,3'-ureylenebis-[6-(2-amino-8-hydroxy-6-sulfo-1-naphthylazo)]benzenesulfonic acid, tetrasodium salt]
- anticomplementary effect / complement inhibition (complement system): anticomplementary effect

Compound: COCCOC(=O)c1cc(NS(=O)(=O)c2cc(S(=O)(=O)Nc3cc(C(=O)OCCOC)cc(C(=O)OCCOC)c3)cc(S(=O)(=O)Nc3cc(C(=O)OCCOC)cc(C(=O)OCCOC)c3)c2)cc(C(=O)OCCOC)c1 [5,5',5"-[s-Phenenyltris(sulfonylimino)]tri-isophthalic acid hexakis(2-methoxyethyl)ester]
- AC Wells (citrated sheep plasma): < 0 Wells

Compound: O=C(O)c1cc(NS(=O)(=O)c2cc(S(=O)(=O)Nc3cc(C(=O)O)cc(C(=O)O)c3)cc(S(=O)(=O)Nc3cc(C(=O)O)cc(C(=O)O)c3)c2)cc(C(=O)O)c1 [5,5',5"-[s-Phenenyltris(sulfonylimino)]tri-isophthalic acid] [listing 1 of 2 here]
- inhibition at 200 mg/kg (whole complement; 2 min, 2 mins., read-out: % Inhibition, Intravenous, 2 min): -88%
- inhibition at 200 mg/kg (whole complement; 0.5 h, 30 mins., read-out: % Inhibition, Intravenous, 30 min): -66%
- inhibition at 200 mg/kg (whole complement; 2 h, 120 mins., read-out: % Inhibition, Intravenous, 120 min): -53%

Compound: NC[C@H]1CC[C@H](C(=O)O)CC1 [tranexamic acid]
- success in treatment of hereditary angioneurotic edema [1]: used with success

Compound: Cc1ccc(C(=O)Nc2ccc(S(=O)(=O)O)c3cc(S(=O)(=O)O)cc(S(=O)(=O)O)c23)cc1NC(=O)c1cccc(NC(=O)Nc2cccc(C(=O)Nc3cc(C(=O)Nc4ccc(S(=O)(=O)O)c5cc(S(=O)(=O)O)cc(S(=O)(=O)O)c45)ccc3C)c2)c1 [Suramin]
- anticomplementary effect / complement inhibition (complement system): competitive inhibitor of the complement system
- success in treatment of hereditary angioneurotic edema [1]: used with success

Compound: heparin
- anticomplementary effect / complement inhibition (complement system): anticomplementary effect

Compound: COC(=O)c1cc(NS(=O)(=O)c2cc(S(=O)(=O)Nc3ccc(O)c(C(=O)OC)c3)cc(S(=O)(=O)Nc3ccc(O)c(C(=O)OC)c3)c2)ccc1O [5,5',5"-[s-Phenenyltris(sulfonylimino)]trisalicyclic acid trimethyl ester]
- AC Wells (citrated sheep plasma): ≤ +1 Wells

Compound: O=C(O)c1cc(NS(=O)(=O)c2cc(S(=O)(=O)Nc3ccc(O)c(C(=O)O)c3)cc(S(=O)(=O)Nc3ccc(O)c(C(=O)O)c3)c2)ccc1O [5,5',5"-[s-Phenenyltris(sulfonylimino)]trisalicylic acid]
- AC Wells (citrated sheep plasma): -2 Wells

Compound: O=C(O)c1cc(NS(=O)(=O)c2cc(S(=O)(=O)Nc3cc(C(=O)O)c(O)c(C(=O)O)c3)cc(S(=O)(=O)Nc3cc(C(=O)O)c(O)c(C(=O)O)c3)c2)cc(C(=O)O)c1O [5,5',5"-[s-Phenenyltris(sulfonylimino)]tri-2-hydroxy-isophthalic acid]
- C1 026 Wells (activated human C1): +6 Wells
- Complement Inhibiting Activity (Wells) Code 026 (activated human C1): +6 Wells
- Shunt Inhibition 036 Wells (shunt pathway): +1 Wells
- AC Wells (citrated sheep plasma): -1 Wells
- Anti-coagulant Activity (Wells) AC (citrated sheep plasma): -1 Wells
- Intrinsic Therapeutic Index [2]: 128
- Logarithmic Difference Expressed As Wells [2]: +7 Wells

Compound: COC(=O)c1cc(NS(=O)(=O)c2cc(S(=O)(=O)Nc3cc(C(=O)OC)c(O)c(C(=O)OC)c3)cc(S(=O)(=O)Nc3cc(C(=O)OC)c(O)c(C(=O)OC)c3)c2)cc(C(=O)OC)c1O [5,5',5"-[s-Phenenyltris(sulfonylimino)]tri-2-hydroxy isophthalic acid hexamethyl ester]
- AC Wells (citrated sheep plasma): -1 Wells

Compound: O=C(O)c1cc(NS(=O)(=O)c2cc(S(=O)(=O)Nc3cc(C(=O)O)cc(C(=O)O)c3)cc(S(=O)(=O)Nc3cc(C(=O)O)cc(C(=O)O)c3)c2)cc(C(=O)O)c1 [5,5',5"-[s-Phenenyltris(sulfonylimino)]tri-isophthalic acid ] [5,5',5"-[s-Phenenyltris(sulfonylimino)]tri-isophthalic acid hexasodium salt, trisodium derivative compound with ethyl alcohol (2:5)]
- C1 026 Wells (activated human C1): +5 Wells
- Complement Inhibiting Activity (Wells) Code 026 (activated human C1): +5 Wells
- AC Wells (citrated sheep plasma): -1 Wells
- Anti-coagulant Activity (Wells) AC (citrated sheep plasma): -1 Wells
- % Inhibition, Intraperitoneal, 30 min (whole complement; 30 mins.): -62%
- % Inhibition, Intraperitoneal, 60 min (whole complement): -53%
- % Inhibition, Intraperitoneal, 120 min (whole complement; 120 mins.): -49%
- Intrinsic Therapeutic Index [2]: 64
- Logarithmic Difference Expressed As Wells [2]: +6 Wells

Compound: pentosan-poly-sulfoester
- anticomplementary activity, reduction in total hemolytic complement activity [3]: anticomplementary activity on human serum both in vitro and in vivo

Compound: NCCCCCC(=O)O [epsilon-aminocaproic acid]
- success in treatment of hereditary angioneurotic edema [1]: used with success

Compound: O=C(O)c1cc(NS(=O)(=O)c2cc(S(=O)(=O)Nc3cc(C(=O)O)cc(C(=O)O)c3)cc(S(=O)(=O)Nc3cc(C(=O)O)cc(C(=O)O)c3)c2)cc(C(=O)O)c1 [5,5',5"-[s-Phenenyltris(sulfonylimino)]tri-isophthalic acid] [listing 2 of 2 here]
- % Inhibition, Intraperitoneal, 30 min (whole complement; 30 mins.): -74%
- % Inhibition, Intraperitoneal, 60 min (whole complement): -74%
- % Inhibition, Intraperitoneal, 120 min (whole complement; 120 mins.): -74%
- Intrinsic Therapeutic Index [2]: 512 and 256
